Values of other authors in patent US20260116929A1, “ANTI-GRAM-NEGATIVE BACTERIAL COMPOUND” (Murata Manufacturing Co., Ltd., priority 2018, published 2026).

Experiments:
Settings in all cases: background statement
gram-positive bacteria = test system: gram-positive bacteria
gram-negative bacteria = test system: gram-negative bacteria
Vibrio parahaemolyticus = test system: Vibrio parahaemolyticus

C=C1NC(=O)CC[C@@H](C(=O)O)NC(=O)[C@H](NC(=O)[C@H](CCCCN)NC(=O)[C@@H](N)Cc2c[nH]c3ccccc23)CSC[C@@H](C(=O)N[C@@H]2C(=O)N3CCC[C@H]3C(=O)NCC(=O)N[C@H](C(=O)N[C@H](C(=O)N[C@@H]3C(=O)NCC(=O)N[C@@H](C)C(=O)N[C@@H](CC(C)C)C(=O)N[C@@H](CCC(N)=O)C(=O)N/C(=C/C)C(=O)N[C@H](C(=O)N[C@@H](Cc4ccccc4)C(=O)N[C@@H](CC(C)C)C(=O)N[C@@H](CCC(N)=O)C(=O)N[C@@H]4C(=O)N[C@@H](CC(C)C)C(=O)N[C@H]5C(=O)N[C@@H](CSC4C)C(=O)NC(=O)[C@H](CC(N)=O)N[C@H](C(=O)N[C@@H](CCCCN)C(=O)N[C@H](C(=O)NC(=C)C(=O)N[C@@H](CCCCN)C(=O)O)[C@@H](C)CC)CSC5C)CSC3C)C(C)C)CSC2C)N[C@@H](CC(C)C)C(=O)NC1=O (stereo partly shown) [subtilin]
antimicrobial activity against gram-positive bacteria (gram-positive bacteria): have antimicrobial activities
antimicrobial activity against gram-negative bacteria (gram-negative bacteria): not

Nisin
antimicrobial activity against gram-positive bacteria (gram-positive bacteria): has an antimicrobial activity
antimicrobial activity against Vibrio parahaemolyticus (Vibrio parahaemolyticus): no antimicrobial activity
antimicrobial activity against gram-negative bacteria (gram-negative bacteria): not

entianin
antimicrobial activity against gram-positive bacteria (gram-positive bacteria): have antimicrobial activities
antimicrobial activity against gram-negative bacteria (gram-negative bacteria): not
